{
  "source": "patent US20240041908A1",
  "about": "“IMMUNOMODULATORY OLIGOSACCHARIDES FOR THE TREATMENT OF AUTISM SPECTRUM DISORDER” (Intrinsic Medicine, Inc., priority 2020, published 2024)",
  "key": {"[1]": {"system": "TNFα and IL-8", "settings": "independent anti-inflammatory effects; cited from earlier work"}, "[2]": {"system": "murine and human derived macrophages stimulated with LPS", "settings": "cited from earlier work; for IL-1β, IL-2, IL-4, IL-6, IL-12, IFNγ or TNF-α: in vitro"}, "[3]": {"system": "child, diagnosed with ASD with frequent anxiety and episodes of self harm", "experiment": "Case report: child diagnosed with ASD given oral 3′-sialyllactose daily", "format": "in vivo, human", "settings": "40-50 mg/kg per day orally once a day", "experimental": "A child, diagnosed with ASD with frequent anxiety and episodes of self harm, was given 40-50 mg/kg per day 3′-sialyllactose (Glycom, food grade, GRAS) dosed orally once a day."}},
  "note": "Where two headings read alike, the source gives them in different places.",
  "data": [
    {"smiles": "CC1O[C@@H](OC2[C@H](O[C@H]3C(O)C(O)C(O)O[C@H]3CO)OC(CO)[C@H](O)[C@@H]2O)C(O)[C@@H](O)[C@@H]1O", "note": "(some centres unmarked) [2′fucosyllactose, 2′-fucosyllactose]", "values": [
      {"measurement": "TNFα and IL-8", "setting": "[1]", "result": "reduction"}
    ]},
    {"smiles": "CC(=O)N[C@H]1C([C@H](O)[C@H](O)CO)O[C@@](OCC2O[C@@H](O[C@@H]3C(CO)O[C@@H](O)C(O)[C@H]3O)C(O)[C@@H](O)[C@H]2O)(C(=O)O)C[C@H]1O", "note": "(some centres unmarked) [6′SL, 6′-sialyllactose]", "values": [
      {"measurement": "IL-1β, IL-2, IL-4, IL-6, IL-12, IFNγ or TNF-α", "setting": "[2]", "result": "reductions"}
    ]},
    {"smiles": "CC(=O)N[C@H]1C([C@H](O)[C@H](O)CO)O[C@@](O[C@@H]2C(O)[C@H](O[C@@H]3C(CO)O[C@@H](O)C(O)[C@H]3O)OC(CO)[C@@H]2O)(C(=O)O)C[C@H]1O", "note": "(some centres unmarked) [3′-sialyllactose]", "values": [
      {"measurement": "PDL1, COX2 and select chemokines such as CCL2 (MCP1) and CCL5", "setting": "[2]", "result": "reduce"},
      {"measurement": "IL-1β, IL-2, IL-4, IL-6, IL-12, IFNγ or TNF-α", "setting": "[2]; listed as 3′-SL", "result": "more significant reductions"},
      {"measurement": "IL-1β, IL-2, IL-4, IL-6, IL-12, IFNγ or TNF-α", "setting": "[2]; listed as 3′SL", "result": "reductions"},
      {"measurement": "heart rate", "setting": "[3]; measured by parent before and after treatment", "result": "reduction in heart rate"},
      {"measurement": "anxiety", "setting": "[3]; noted by parent", "result": "significant decrease"},
      {"measurement": "self-harm episodes", "setting": "[3]; noted by parent", "result": "significant decrease"}
    ]}
  ]
}
